# Assays:
# Trichophyton rubrum [1] = assay: Direct addition method, solid compound in Sabouraud dextrose agar; type: cell-based; settings: against Trichophyton rubrum
# Procedure: (§1) Direct addition method. Sabouraud dextrose agar was prepared according to the manufacturer's instructions and 5.0 ml was dispensed in each 100×25 mm tube. The tubes were autoclaved. To each tube containing 5.0 ml of liquid agar at 45° C., 20 mg of solid test compound was added, to give a final concentration of 4 mg/ml. The agar was solidified in slants. The fungal cultures were then innoculated. The slants were incubated at 25-28 ° C. for 10-12 days, and the growth of the fungus was recorded every second day. The results in Table 2 indicate growth at the 12th day of inoculation.
# Microsporum audouinni [2] = assay: as above; type: cell-based, Microsporum audouinii; design: key to Fungal growth: +++: Maximum Fungal Growth; ++: Moderate Fungal Growth; +: Minimum Fungal Growth; +/−: Very little Fungal Growth; −: No Fungal Growth; settings: 4 mg/mL of agar; 12th day after inoculation
# Summary of the method: (§2)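 Direct-addition agar test: compound (4 mg/ml final, added undissolved to molten Sabouraud dextrose agar) in slants, incubated 25-28° C. with growth noted on day 12.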
# Pityrosporum ovale [3] = assay: Direct addition into the Pityrosporum agar; type: cell-based; design: key to Pityrosporum ovale growth: +++: Maximum Growth; ++: Moderate Growth; +: Minimum Growth; +/−: Very Little Growth; −: No Growth; settings: for Pityrosporum ovale growth: 4 mg/ml in the agar, 18 hours after inoculation
# Procedure: Direct addition method. Sabouraud dextrose agar was prepared according to the manufacturer's instructions and 5.0 ml was dispensed in each 100×25 mm tube. The tubes were autoclaved. To each tube containing 5.0 ml of liquid agar at 45° C., 20 mg of solid test compound was added, to give a final concentration of 4 mg/ml. The agar was solidified in slants. The fungal cultures were then innoculated. […]
# Epidermophyton floccosum [4] = assay: Direct addition method, solid compound in Sabouraud dextrose agar; type: cell-based; design: key: +++: Maximum Fungal Growth; ++: Moderate Fungal Growth; +: Minimum Fungal Growth; +/−: Very little Fungal Growth; −: No Fungal Growth; settings: 4 mg/mL of agar; 12th day after inoculation
# Summary of the method: as §2
# Microsporum canis [5] = assay: as above; type: cell-based; design: key: +++: Maximum Fungal Growth; ++: Moderate Fungal Growth; +: Minimum Fungal Growth; +/−: Very little Fungal Growth; −: No Fungal Growth; settings: 4 mg/mL of agar; 12th day after inoculation
# Summary of the method: as §2
# Pityrosporum ovale [6] = assay: as above; type: cell-based; design: key: +++: Maximum Fungal Growth; ++: Moderate Fungal Growth; +: Minimum Fungal Growth; +/−: Very little Fungal Growth; −: No Fungal Growth; settings: 4 mg/mL of agar; 12th day after inoculation
# Summary of the method: as §2
# Trichophyton rubrum [7] = assay: as above; type: cell-based; design: key: +++: Maximum Fungal Growth; ++: Moderate Fungal Growth; +: Minimum Fungal Growth; +/−: Very Little Fungal Growth; −: No Fungal Growth; settings: 4 mg/mL of agar; 12th day after inoculation
# Procedure: as §1
# Microsporum canis [8] = assay: Agar dilution method, growth on Sabouraud dextrose agar slants; type: cell-based; design: key: +++: Maximum Fungal Growth; ++: Moderate Fungal Growth; +: Minimum Fungal Growth; +/−: Very little Fungal Growth; −: No Fungal Growth; settings: 12th day after inoculation
# Summary of the method: (§3)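 Growth of each dermatophyte was recorded every second day over 10-12 days at 25-28 °C on agar slants. These slants were Sabouraud dextrose agar into which the compound in DMSO had been blended while the agar was liquid at 45 °C.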
# Microsporum gypseum [9] = assay: as above; type: cell-based; design: key: +++: Maximum Fungal Growth; ++: Moderate Fungal Growth; +: Minimum Fungal Growth; +/−: Very little Fungal Growth; −: No Fungal Growth; settings: 12th day after inoculation
# Summary of the method: as §3
# Pityrosporum ovale [10] = assay: as above; type: cell-based; design: key: +++: Maximum Fungal Growth; ++: Moderate Fungal Growth; +: Minimum Fungal Growth; +/−: Very little Fungal Growth; −: No Fungal Growth; settings: 12th day after inoculation
# Summary of the method: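 Readout: fungal growth, noted on alternate days across a 10-12 day incubation at 25-28 °C. Test slants were Sabouraud dextrose agar with compound incorporated from DMSO before solidification.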
# Trichophyton rubrum [11] = assay: as above; type: cell-based; design: key: +++: Maximum Fungal Growth; ++: Moderate Fungal Growth; +: Minimum Fungal Growth; +/−: Very little Fungal Growth; −: No Fungal Growth; settings: 12th day after inoculation
# Summary of the method: as §3
# Microsporum audouinni [12] = assay: as above; type: cell-based, Microsporum audouinii; design: key: +++: Maximum Fungal Growth; ++: Moderate Fungal Growth; +: Minimum Fungal Growth; +/−: Very little Fungal Growth; −: No Fungal Growth; settings: 12th day after inoculation
# Summary of the method: as §3
# Trichophyton tonsuran = assay: as above; type: cell-based, Trichophyton tonsurans; design: key: +++: Maximum Fungal Growth; ++: Moderate Fungal Growth; +: Minimum Fungal Growth; +/−: Very little Fungal Growth; −: No Fungal Growth; settings: 12th day after inoculation
# Summary of the method: as §3
# [13] = tested on: Trichophyton mentagrophyte; assay: as above; type: cell-based, Trichophyton mentagrophytes; design: key to Fungal growth: +++: Maximum Fungal Growth; ++: Moderate Fungal Growth; +: Minimum Fungal Growth; +/−: Very little Fungal Growth; −: No Fungal Growth; settings: 12th day after inoculation
# Summary of the method: as §3
# Epidermophyton floccosum [14] = assay: as above; type: cell-based; design: key to Fungal growth: +++: Maximum Fungal Growth; ++: Moderate Fungal Growth; +: Minimum Fungal Growth; +/−: Very little Fungal Growth; −: No Fungal Growth; settings: for Fungal growth: 12th day after inoculation
# Summary of the method: as §3
# Epidermophyton floccosum [15] = assay: Summary of anti-fungal assays (direct addition, agar dilution, liquid culture); type: cell-based; settings: stated in words (Tables 1a/1b, text to Table 5); listed as betulin-3,28-diphthalate
# Procedure: (§4) This example summarizes the results of various other assays of the anti-fungal activity of betulin derivatives. Table 5 summarizes results using different assay methods—direct addition, agar dilution, and direct addition to liquid culture, as disclosed in the previous three Examples. In some cases, only one type of assay was done with a compound. In other cases, the compound was tested by multiple assays.
# Microsporum audouinii = assay: as above; type: cell-based; settings: stated in words (Tables 1a/1b, text to Table 5)
# Procedure: as §4
# Microsporum gypseum [16] = assay: as above; type: cell-based; settings: stated in words (Tables 1a/1b, text to Table 5)
# Procedure: as §4
# Trichophyton tonsurans = assay: as above; type: cell-based; settings: stated in words (Tables 1a/1b, text to Table 5)
# Procedure: as §4
smiles,measurement,setting,value
"C=C(C)C1CCC2(COC(=O)C(N)C(C)C)CCC3(C)C(CCC4C5(C)CCC(OC(=O)C(N)C(C)C)C(C)(C)C5CCC43C)C12 [Betulin-3,28-di-L-valine]",best anti-fungal or anti-yeast activity by the direct addition method,Trichophyton rubrum [1],against Trichophyton rubrum
same,Fungal growth,Microsporum audouinni [2],+
same,Pityrosporum ovale growth,Pityrosporum ovale [3],+/−
same,Fungal growth,Epidermophyton floccosum [4],−
same,Fungal growth,Microsporum canis [5],+
same,Fungal growth,Pityrosporum ovale [6],−
same,Fungal growth,Trichophyton rubrum [7],+/−
"C[C@@H]1[C@H](O)[C@@H](C)/C=C/C=C/CC/C=C/C=C/C=C/C=C/C(O[C@H]2O[C@H](C)[C@@H](O)[C@H](N)[C@@H]2O)CC2O[C@](O)(CC(O)C(O)CCC(O)CC(O)CC(O)CC(=O)O[C@H]1C)CC(O)C2C(=O)O (some centres unmarked) [Nystatin, reference compound]",Fungal growth,Microsporum canis [8]; 125 μg/ml,+
same,Fungal growth,Microsporum canis [8]; 250 μg/ml,+/−
same,Fungal growth,Microsporum canis [8]; 500 μg/ml,−
same,Fungal growth,Microsporum canis [8]; 1000 μg/ml,−
same,Fungal growth,Microsporum gypseum [9]; 125 μg/ml,+
same,Fungal growth,Microsporum gypseum [9]; 250 μg/ml,+/−
same,Fungal growth,Microsporum gypseum [9]; 500 μg/ml,−
same,Fungal growth,Microsporum gypseum [9]; 1000 μg/ml,−
same,Fungal growth,Pityrosporum ovale [10]; 125 μg/ml,+
same,Fungal growth,Pityrosporum ovale [10]; 250 μg/ml,+/−
same,Fungal growth,Pityrosporum ovale [10]; 500 μg/ml,−
same,Fungal growth,Pityrosporum ovale [10]; 1000 μg/ml,−
same,Fungal growth,Trichophyton rubrum [11]; 125 μg/ml,+
same,Fungal growth,Trichophyton rubrum [11]; 250 μg/ml,+
same,Fungal growth,Trichophyton rubrum [11]; 500 μg/ml,+/−
same,Fungal growth,Trichophyton rubrum [11]; 1000 μg/ml,−
same,Fungal growth,Microsporum audouinni [12]; 125 μg/ml,−
same,Fungal growth,Microsporum audouinni [12]; 250 μg/ml,−
same,Fungal growth,Microsporum audouinni [12]; 500 μg/ml,−
same,Fungal growth,Microsporum audouinni [12]; 1000 μg/ml,−
same,Fungal growth,Trichophyton tonsuran; 125 μg/ml,+
same,Fungal growth,Trichophyton tonsuran; 250 μg/ml,+/−
same,Fungal growth,Trichophyton tonsuran; 500 μg/ml,−
same,Fungal growth,Trichophyton tonsuran; 1000 μg/ml,−
same,Fungal growth,[13]; 125 μg/ml,+
same,Fungal growth,[13]; 250 μg/ml,+
same,Fungal growth,[13]; 500 μg/ml,−
same,Fungal growth,[13]; 1000 μg/ml,−
same,Fungal growth,Epidermophyton floccosum [14]; 125 μg/ml,+/−
same,Fungal growth,Epidermophyton floccosum [14]; 250 μg/ml,−
same,Fungal growth,Epidermophyton floccosum [14]; 500 μg/ml,−
same,Fungal growth,Epidermophyton floccosum [14]; 1000 μg/ml,−
same,Fungal growth,Microsporum audouinni [2],−
same,Growth inhibition of Pityrosporum ovale by the direct addition method,Pityrosporum ovale [3]; 4 mg/ml,inhibits growth
same,Pityrosporum ovale growth,Pityrosporum ovale [3],+/−
same,Fungal growth,Epidermophyton floccosum [4],−
same,Fungal growth,Microsporum canis [5],−
same,Fungal growth,Pityrosporum ovale [6],−
same,Fungal growth,Trichophyton rubrum [7],+/−
"C=C(C)[C@@H]1CC[C@]2(COC(=O)c3ccccc3C(=O)O)CC[C@]3(C)[C@H](CC[C@@H]4[C@@]5(C)CC[C@H](OC(=O)c6ccccc6C(=O)O)C(C)(C)[C@@H]5CC[C@]43C)[C@@H]12 [Betulin-3,28-diphthalate]",Fungal growth,Microsporum canis [8]; 125 μg/ml,++
same,Fungal growth,Microsporum canis [8]; 250 μg/ml,+
same,Fungal growth,Microsporum canis [8]; 500 μg/ml,−
same,Fungal growth,Microsporum canis [8]; 1000 μg/ml,−
same,Fungal growth,Microsporum gypseum [9]; 125 μg/ml,++
same,Fungal growth,Microsporum gypseum [9]; 250 μg/ml,+
same,Fungal growth,Microsporum gypseum [9]; 500 μg/ml,−
same,Fungal growth,Microsporum gypseum [9]; 1000 μg/ml,−
same,Fungal growth,Pityrosporum ovale [10]; 125 μg/ml,+++
same,Fungal growth,Pityrosporum ovale [10]; 250 μg/ml,+++
same,Fungal growth,Pityrosporum ovale [10]; 500 μg/ml,+++
same,Fungal growth,Pityrosporum ovale [10]; 1000 μg/ml,++
same,Fungal growth,Trichophyton rubrum [11]; 125 μg/ml,++
same,Fungal growth,Trichophyton rubrum [11]; 250 μg/ml,++
same,Fungal growth,Trichophyton rubrum [11]; 500 μg/ml,+
same,Fungal growth,Trichophyton rubrum [11]; 1000 μg/ml,−
same,Fungal growth,Microsporum audouinni [12]; 125 μg/ml,++
same,Fungal growth,Microsporum audouinni [12]; 250 μg/ml,+
same,Fungal growth,Microsporum audouinni [12]; 500 μg/ml,−
same,Fungal growth,Microsporum audouinni [12]; 1000 μg/ml,−
same,Fungal growth,Trichophyton tonsuran; 125 μg/ml,+++
same,Fungal growth,Trichophyton tonsuran; 250 μg/ml,++
same,Fungal growth,Trichophyton tonsuran; 500 μg/ml,+/−
same,Fungal growth,Trichophyton tonsuran; 1000 μg/ml,−
same,Fungal growth,[13]; 125 μg/ml,++
same,Fungal growth,[13]; 250 μg/ml,+
same,Fungal growth,[13]; 500 μg/ml,−
same,Fungal growth,[13]; 1000 μg/ml,−
same,Fungal growth,Epidermophyton floccosum [14]; 125 μg/ml,++
same,Fungal growth,Epidermophyton floccosum [14]; 250 μg/ml,++
same,Fungal growth,Epidermophyton floccosum [14]; 500 μg/ml,+/−
same,Fungal growth,Epidermophyton floccosum [14]; 1000 μg/ml,−
same,best antifungal or anti-yeast activity by the agar dilution method,Epidermophyton floccosum [14]; against Epidermophyton floccosum,against Epidermophyton floccosum
same,Active against Epidermophyton floccosum,Epidermophyton floccosum [15],against Epidermophyton floccosum
same,Active against Microsporum audouinii,Microsporum audouinii,Microsporum audouinii
same,Active against Microsporum gypseum,Microsporum gypseum [16],Microsporum gypseum
same,Active against Trichophyton tonsurans,Trichophyton tonsurans,Trichophyton tonsurans
